# Reference: paper PMC12687449, “Membrane disruption attenuates agonist potency in prostanoid receptors” (Biochemical Journal, 2025)
# Legend:
# [1] = molecular target: ETB receptor (wildtype) (human) (UniProt P24530)
# DP2 receptor = molecular target: T1, DP2 receptor (Homo sapiens, UniProt Q9Y5Y4); assay: BRET-based G protein activation, wildtype DP2 receptor + Gαo biosensor in HEK293T cells; type: cell-based
# T1 construct: host or cells: HEK293T (transient)
# T1 sequence (Q9Y5Y4 1-395): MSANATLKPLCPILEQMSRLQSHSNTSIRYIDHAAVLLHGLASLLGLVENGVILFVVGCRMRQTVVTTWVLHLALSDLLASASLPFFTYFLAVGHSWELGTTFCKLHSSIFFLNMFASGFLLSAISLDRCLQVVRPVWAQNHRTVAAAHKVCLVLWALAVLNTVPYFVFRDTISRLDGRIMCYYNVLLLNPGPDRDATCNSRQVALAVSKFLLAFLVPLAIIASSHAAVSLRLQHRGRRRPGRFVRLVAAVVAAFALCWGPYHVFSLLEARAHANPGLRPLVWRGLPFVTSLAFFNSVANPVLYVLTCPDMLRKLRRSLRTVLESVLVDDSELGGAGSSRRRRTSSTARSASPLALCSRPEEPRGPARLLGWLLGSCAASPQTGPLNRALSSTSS
# Experimental: Two days before BRET measurements were performed, HEK293T cells were transiently transfected with 3 µg of cDNAs containing TP receptor, ETB receptor, DP2 receptor, or S1P3 receptor and 3 µg of cDNAs containing Gβ3-T2A-cpVenus-Gγ9-IRES-Gαq-NLuc or Gβ3-T2A-cpVenus-Gγ9-IRES-Gαo1-NLuc using linear 25 kDa PEI reagent (polyethylenimine, PolyScience Inc., Hirschberg an der Bergstraße, Germany). The ratio between DNA and PEI was 1:3, and 50 µl serum-free DMEM was added per 1 µg DNA. The same amount of serum-free DMEM was also added separately to the PEI solution. DNA-DMEM and PEI-DMEM mixtures were incubated for 5 minutes, followed by incubation of the final mixture for another 10 minutes. […]
# Two days before the actual measurement, HEK293T cells were transiently transfected and seeded on microplates. […] The measurements were performed using a Spark 20M plate reader (Tecan) at 37°C. Initially, the cells were measured for the baseline emission ratio. After the baseline measurement, 20 µl of external or internal buffer containing differing concentrations of either U-46619, 4-Ala ET-1, PGD,2 or S1P or external or internal buffer alone were added to the cells and measured. […] The cells were measured from the top and the donor luminescence (NLuc) was recorded at 415 to 470 nm and the acceptor luminescence (cpVenus) at 520 to 590 nm. Data were recorded using SparkControl^TM software. […]
# [2] = molecular target: T2, DP2 receptor conformation sensor (Homo sapiens, UniProt Q9Y5Y4); assay: FRET-based DP2 receptor conformation sensor, multiple-cell measurements in HEK293 cells or membrane fragments
# T2 sequence (Q9Y5Y4 1-231 limits assumed): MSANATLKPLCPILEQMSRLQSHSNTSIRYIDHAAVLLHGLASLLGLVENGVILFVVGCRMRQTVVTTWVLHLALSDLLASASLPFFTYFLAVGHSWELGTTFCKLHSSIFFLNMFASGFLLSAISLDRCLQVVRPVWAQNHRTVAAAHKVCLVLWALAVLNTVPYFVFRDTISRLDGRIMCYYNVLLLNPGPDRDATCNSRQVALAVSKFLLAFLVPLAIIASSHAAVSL
# T2 sequence (Q9Y5Y4 248-308 limits assumed): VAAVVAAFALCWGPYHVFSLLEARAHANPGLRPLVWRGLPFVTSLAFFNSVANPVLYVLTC
# Experimental: (§1) HEK293 cells stably expressing the EP4 receptor, IP receptor, or DP2 receptor conformation sensor were seeded on 15 cm Ø dishes and grown until optical confluence. The cells were washed once with Dulbecco’s PBS (Capricorn Scientific GmbH), without Ca & Mg and Phenol Red (phosphate-buffered saline, PBS). After adding 5 ml PBS to the cells, the dish was treated with liquid nitrogen until the solution was visibly frozen. These dishes were stored at −80°C until the measurements were carried out. On the day of the measurement, the dishes were removed from the freezer and stored at room temperature until the buffer solution had thawed. The material was collected with a cell scraper and centrifuged (5000 rpm/5 min). […]
# Intact HEK293 cells stably expressing the EP4 receptor, IP receptor, or DP2 receptor conformation sensors were counted, adjusted to 100,000–120,000 cells per well, and seeded on poly-L-lysine coated microplates one day before measurement. […]
# We used a Spark 20M plate reader (Tecan, Männedorf, Switzerland) for multiple-cell FRET measurements of intact cells or membrane fragments. The cells were measured from the bottom and the donor fluorescent protein (mT2) was excited at 430 nm. First, the cells were measured for the baseline emission ratio. […] The emitted donor fluorescence (mT2) and acceptor fluorescence (eYFP) were recorded at 485 nm and 535 nm, respectively. […]
# [3] = molecular target: T3, EP2 receptor conformation sensor (Homo sapiens, UniProt P43116, DEL238-250); assay: FRET-based EP2 receptor conformation sensor, single-cell measurements in HEK293 cells; conditions: saponin-permeabilized cells, 3000 nM PGE2, reference 20 µM PGE2
# T3 construct: mT2 insertion and truncation after Q349; expressed in transfected cells
# Experimental: (§2) The cells were washed once with external buffer and subsequently incubated 2 minutes for single-cell FRET measurements or 10 minutes for BRET measurements in 0.05% saponin (AppliChem, Darmstadt, Germany) dissolved in internal buffer. Afterward, the cells were washed five times for single-cell FRET measurements or three times for BRET measurements with internal buffer.
# The coverslips loaded with stably transfected HEK293 cells containing either the FFA3 receptor, α2A-AR CAM, or ETB receptor conformation sensors were clamped in an Attofluor^TM cell chamber and were washed once with external buffer. Afterward, they were side by side either permeabilized or directly measured at room temperature by the use of an inverted microscope (Elipse Ti2, Nikon, Düsseldorf, Germany), equipped with a 100× oil immersion objective (Plan Apo λ 100 x/1.45 oil ∞/0.17 WD 0.13, Nikon, Düsseldorf, Germany) and dual excitation and dual emission imaging capabilities. […] The fluorescence emission of mT2 and the respective YFP variant was simultaneously collected by a second beamsplitter (488, Chroma, Bellows Falls, Vermont, U.S.A.) and two emission filters (mT2: 474/27, Chroma; YFP: 544/23, Chroma). […] For all single-cell FRET experiments, cells were prospectively selected based on a continuous plasma-membrane fluorescence rim and appropriate fluorescence distribution to ensure a PM-dominant receptor signal. […]
# [4] = molecular target: EP4 receptor conformation sensor (Homo sapiens, UniProt P35408); assay: FRET-based EP4 receptor conformation sensor stably expressed in HEK293 cells (intact, saponin-permeabilized, membrane fragments); type: cell-based
# Experimental: as §2
# as §1, with “min). The supernatant was discarded, the pellet containing the membrane fragments was resuspended with external buffer containing 0.1% BSA and seeded on microplates.” for “min).”
# S1P3 receptor = S1P3 receptor (Homo sapiens, UniProt Q99500); assay: BRET-based G protein activation, wildtype S1P3 receptor + Gαq biosensor in HEK293T cells; type: cell-based
# Source text: […] Afterward, the cells were washed five times for single-cell FRET measurements or three times for BRET measurements with internal buffer.
# Concentration-response curves were fitted in GraphPad Prism 8 using nonlinear regression (log(agonist) vs. response - variable slope (four parameters)) with the hillslope set to 1, the bottom constrained to 0 and the top to 1 using the following equation: […]
# [5] = molecular target: T4, TP receptor conformation sensor (Homo sapiens, UniProt P21731); assay: FRET-based TP receptor conformation sensor, single-cell measurements in HEK293 cells; conditions: 1 µM U-46619, reference 8 µM U-46619
# T4 sequence (P21731 1-311 limits assumed): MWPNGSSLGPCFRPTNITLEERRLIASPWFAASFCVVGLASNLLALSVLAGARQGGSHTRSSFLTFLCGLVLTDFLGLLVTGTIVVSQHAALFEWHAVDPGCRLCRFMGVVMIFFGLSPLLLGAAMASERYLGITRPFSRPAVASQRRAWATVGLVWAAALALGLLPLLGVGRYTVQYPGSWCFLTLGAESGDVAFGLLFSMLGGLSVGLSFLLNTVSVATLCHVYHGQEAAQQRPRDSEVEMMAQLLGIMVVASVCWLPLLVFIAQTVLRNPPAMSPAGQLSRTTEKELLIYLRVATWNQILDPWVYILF
# [6] = saponin-permeabilized cells with 1 µM GTP
# Sequence of EP4 receptor conformation sensor (P35408 1-332 limits assumed): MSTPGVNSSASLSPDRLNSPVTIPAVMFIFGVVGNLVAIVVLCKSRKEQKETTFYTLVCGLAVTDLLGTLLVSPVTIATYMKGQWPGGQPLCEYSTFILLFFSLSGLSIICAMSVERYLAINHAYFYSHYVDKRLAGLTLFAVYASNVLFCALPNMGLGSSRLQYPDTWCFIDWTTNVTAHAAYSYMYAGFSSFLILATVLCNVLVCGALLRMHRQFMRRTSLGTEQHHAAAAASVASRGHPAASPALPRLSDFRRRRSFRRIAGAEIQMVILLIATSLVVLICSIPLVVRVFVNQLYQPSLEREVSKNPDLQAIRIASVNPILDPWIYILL
# Sequence of S1P3 receptor (Q99500 whole entry): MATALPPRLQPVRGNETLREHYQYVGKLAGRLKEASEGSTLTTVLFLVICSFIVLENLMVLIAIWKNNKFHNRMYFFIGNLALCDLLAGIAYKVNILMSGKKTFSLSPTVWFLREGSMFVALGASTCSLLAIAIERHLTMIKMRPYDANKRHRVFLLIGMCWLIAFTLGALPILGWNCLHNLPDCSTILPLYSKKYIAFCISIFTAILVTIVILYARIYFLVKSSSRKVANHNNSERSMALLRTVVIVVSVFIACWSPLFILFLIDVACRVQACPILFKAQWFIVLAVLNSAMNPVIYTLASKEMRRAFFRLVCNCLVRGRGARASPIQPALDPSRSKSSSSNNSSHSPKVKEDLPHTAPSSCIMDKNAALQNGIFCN
# T3 sequence (P43116 with tags, fused parts or gaps DEL238-250): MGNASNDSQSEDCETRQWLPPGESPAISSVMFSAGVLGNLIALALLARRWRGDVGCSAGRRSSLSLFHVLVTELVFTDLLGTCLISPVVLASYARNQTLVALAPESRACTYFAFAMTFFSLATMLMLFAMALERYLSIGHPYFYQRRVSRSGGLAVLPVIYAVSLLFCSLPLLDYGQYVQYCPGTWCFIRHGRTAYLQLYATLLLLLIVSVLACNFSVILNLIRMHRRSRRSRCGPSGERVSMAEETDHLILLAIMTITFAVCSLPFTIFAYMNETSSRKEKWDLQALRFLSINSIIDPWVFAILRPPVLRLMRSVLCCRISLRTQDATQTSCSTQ
# Sequence of ETB receptor (wildtype) (human) (P24530 27-442): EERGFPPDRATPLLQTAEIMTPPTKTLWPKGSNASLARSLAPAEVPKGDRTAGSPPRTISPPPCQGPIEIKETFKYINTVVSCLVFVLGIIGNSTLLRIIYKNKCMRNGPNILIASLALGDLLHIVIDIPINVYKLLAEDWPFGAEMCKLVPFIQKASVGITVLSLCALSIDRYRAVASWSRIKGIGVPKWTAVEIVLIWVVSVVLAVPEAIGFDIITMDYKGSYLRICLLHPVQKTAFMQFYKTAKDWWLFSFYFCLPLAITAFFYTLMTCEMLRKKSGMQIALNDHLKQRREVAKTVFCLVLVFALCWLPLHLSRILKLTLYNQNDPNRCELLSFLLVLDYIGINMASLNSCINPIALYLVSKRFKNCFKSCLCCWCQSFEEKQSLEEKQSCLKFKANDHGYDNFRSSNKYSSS
compound,measurement,setting,value
4-Ala endothelin-1 (peptide),"BRET-based Gαq biosensor activation in HEK293T cells, concentration-response to 4-Ala ET-1: change of agonist potency in saponin-permeabilized cells with 1 µM GTP against intact cells (Figure 4F)",[1],15 fold
"CCCCC[C@H](O)/C=C/[C@H]1C(=O)C[C@H](O)[C@@H]1C/C=C\CCCC(=O)O [PGD2, (Z)-7-[(1R,2R,5S)-5-hydroxy-2-[(E,3S)-3-hydroxyoct-1-enyl]-3-oxocyclopentyl]hept-5-enoic acid]",EC50,DP2 receptor; intact HEK293T cells,0.562 nM
same,EC50,DP2 receptor; [6],20.4 nM
same,response to the agonist,[2]; intact cells,strong response
same,response to the agonist,[2]; membrane fragments,almost no response
"CCCCC[C@H](O)/C=C/[C@H]1[C@H](O)CC(=O)[C@@H]1C/C=C\CCCC(=O)O [PGE2, (Z)-7-[(1R,2R,3R)-3-hydroxy-2-[(E,3S)-3-hydroxyoct-1-enyl]-5-oxocyclopentyl]hept-5-enoic acid]",response to the test concentration normalized to saturating concentration,[3],about 51% ± 6
same,activation at 0.3 µM,"[4]; HEK293, read-out: normalized response to 10 times EC50",53%
same,response to 10 times EC50,"[4]; saponin-permeabilized cells, internal buffer supplemented with 5 mM ATP and 25 µM GTP",56% ± 1
same,response to the test concentration normalized to saturating concentration,"[4]; saponin-permeabilized cells, internal buffer, 300 nM PGE2, reference 20 µM PGE2",56% ± 1
"CCCCCCCCCCCCC/C=C/[C@@H](O)[C@@H](N)COP(=O)(O)O [S1P, Sphingosine-1-phosphate]",EC50,S1P3 receptor; intact HEK293T cells,28.2 nM
same,EC50,S1P3 receptor; [6],0.55 nM
"CCCCCC(O)/C=C/C1C2CC(CO2)C1C/C=C\CCCC(=O)O (stereo not drawn) [U-46619, 9,11-dideoxy-9α,11α-methanoepoxy-prosta-5Z,13E-dien-1-oic acid]",response to the test concentration (about 10 times EC50) normalized to saturating concentration,[5]; intact cells,full response
same,response to the test concentration normalized to saturating concentration,[5]; saponin-permeabilized cells,59% ± 1
